Assay results published in patent EP0234500A1, “Antiasthma inhalation compositions” (RORER PHARMACEUTICAL CORPORATION, priority 1986, dated 1987).
Where “and” joins values, the source holds several entries; their conditions need not be identical. Equal values may be shown once. Where a name gives a salt, the structure may show the parent alone.

Columns and labels:
[1] = Particle size distribution and MMAD of aerosol formulations; format: physicochemical; design: MMAD**: unit: micrometers (µm); conditions: for MMAD**: Mass Median Aerodynamic Diameter; for Part. Size (mg collected) per 20 actuations 4 µ*: Particle Size Limit = 4 µ to 8 µ; for mg at 1-8 µ: per 20 actuations
Description: Other essential properties of aerosol formulations are the particle size distribution and the related mass median aerodynamic diameter of the particles. It is generally required that the effective range for inahalation products be approximately in the range of 1 to 8 micrometers (um). The particle size distribution helps, inter alia, to reduce loss on impaction on the tongue and oropharynx of the particles expelled from the pressurized container.

Male Hartley guinea pigs = assay: Antigen-induced bronchoconstriction in ovalbumin-immunized anesthetized guinea pigs, aerosol administration; format: in vivo; conditions: 1% aerosol formulation, 25 actuations, approximately 5 mg (or 15 mg/kg), 15 minutes before ovalbumin 0.3 mg/kg i.v. challenge, n=7
Protocol: Male Hartley guinea pigs (200-250 g) were immunized with ovalbumin, 2.7 mg/kg i.p., followed in 30 minutes by Salmonella typhosa lipopolysaccharide, 20 ug i.p. Thirteen to fifteen days after immunization, each guinea pig was anesthetized with sodium pentobarbital, 50 mg/kg i.p., and a jugular vein and the trachea were cannulated. The animal was mechanically ventilated (80 breaths/min. 2ml/breath). Needle electrodes were attached to the limbs for monitoring ECG and heart rate. Airway pressure was measured with a Validyne pressure transducer (+ 20 cm H20 range) connected to the tracheal cannula. Airway pressure for each breath was recorded on a polygraph, while mean values over 6-second periods were printed on a digital terminal. […] All bronchoconstrictor responses to the second dose of LTD4 and to antigen were quantified as the percent increase in airway pressure over the baseline value. The normalized response of each animal is expressed as the ratio of antigen-induced to LTD4-induced bronchoconstriction. Mean values and standard errors of these ratios in control and drug-treated groups were calculated and compared statistically by Student's t-test. The activity of each drug is expressed as the percent inhibition of the mean control response.

[2] = Solubility of the active compound in ethanol/propellant mixture; format: physicochemical
Description: Other aspects of the present invention include solubility of the active compound in the pharmaceutically acceptable solvent, ethyl alcohol, the maintainance in solution of the active compound upon the addition of the propellant(s) and the particle size distribution of the aerosol preparation. The compounds of the present invention are soluble in ethyl alcohol.

[3] = Compound of Example 1 1.0, ETOH 5.0, P 114 47, P 12 47, hydrochloride
[4] = Compound of Example 1 1.0, ETOH 10.0, P 114 25.0, P 12 75.0
[5] = Compound of Example 1 1.0, ETOH 10.0, P 114 35, P 12 53
[6] = Compound of Example 1 1.0, ETOH 10.0, P 114 44.5, P 12 44.5
[7] = Compound of Example 1 1.0, ETOH 10.0, P 114 44.5, P 12 44.5, hydrochloride
[8] = Compound of Example 1 2.0, ETOH 10.0, P 114 44.00, P 12 44.00
[9] = Compound of Example 1 2.5, ETOH 10.0, P 114 43.75, P 12 43.75, hydrochloride
[10] = Compound of Example 1 3.0, ETOH 10.0, P 114 43.5, P 12 43.5
[11] = Compound of Example 1 3.5, ETOH 10.0, P 114 43.25, P 12 43.25
[12] = Compound of Example 1 5.0, ETOH 30.0, P 114 32.5, P 12 32.5
[13] = Compound of Example 1 6.0, ETOH 20.0, P 114 29.6, P 12 44.4
[14] = Compound of Example 1 9.0, ETOH 30.0, P 114 17, P 12 44

Part. Size (mg collected) per 20 actuations 1 µ [1, 3]: 0.448 mg and 0.607 mg and 0.667 mg
Part. Size (mg collected) per 20 actuations 2 µ [1, 3]: 0.973 mg and 1.529 mg and 1.532 mg
Pressure PSI [1, 3]: 58.7 PSI and 60.2 PSI
cum % 1-8 µ [1, 3]: 57.74% and 60.73% and 66.20%
Part. Size (mg collected) per 20 actuations 1 µ [1, 4]: 0.499 mg
Part. Size (mg collected) per 20 actuations 2 µ [1, 4]: 1.167 mg
cum % 1-8 µ [1, 4]: 45.36%
Part. Size (mg collected) per 20 actuations 1 µ [1, 5]: 0.503 mg
Part. Size (mg collected) per 20 actuations 2 µ [1, 5]: 1.201 mg
Pressure PSI [1, 5]: 56 PSI
cum % 1-8 µ [1, 5]: 55.41%
Pressure PSI [1, 6]: 49.3 PSI
Part. Size (mg collected) per 20 actuations 1 µ [1, 7]: 0.498 mg and 0.479 mg
Part. Size (mg collected) per 20 actuations 2 µ [1, 7]: 1.243 mg and 0.868 mg
cum % 1-8 µ [1, 7]: 53.70% and 57.26%
Part. Size (mg collected) per 20 actuations 1 µ [1, 8]: 0.661 mg
Part. Size (mg collected) per 20 actuations 2 µ [1, 8]: 1.373 mg
cum % 1-8 µ [1, 8]: 46.71%
Part. Size (mg collected) per 20 actuations 1 µ [1, 9]: 0.514 mg and 0.528 mg and 0.638 mg
Part. Size (mg collected) per 20 actuations 2 µ [1, 9]: 1.380 mg and 1.435 mg and 1.106 mg
cum % 1-8 µ [1, 9]: 44.86% and 44.36% and 42.87%
Part. Size (mg collected) per 20 actuations 1 µ [1, 10]: 0.538 mg
Part. Size (mg collected) per 20 actuations 2 µ [1, 10]: 1.478 mg
cum % 1-8 µ [1, 10]: 40.15%
Part. Size (mg collected) per 20 actuations 1 µ [1, 11]: 0.583 mg
Part. Size (mg collected) per 20 actuations 2 µ [1, 11]: 1.236 mg
cum % 1-8 µ [1, 11]: 35.00%
Part. Size (mg collected) per 20 actuations 1 µ [1, 12]: 0.336 mg
Part. Size (mg collected) per 20 actuations 2 µ [1, 12]: 0.852 mg
Pressure PSI [1, 12]: 52 PSI
cum % 1-8 µ [1, 12]: 32.09%
Part. Size (mg collected) per 20 actuations 1 µ [1, 13]: 0.447 mg
Part. Size (mg collected) per 20 actuations 2 µ [1, 13]: 0.901 mg
Pressure PSI [1, 13]: 52.0 PSI
cum % 1-8 µ [1, 13]: 28.77%
Part. Size (mg collected) per 20 actuations 1 µ [1, 14]: 0.394 mg
Part. Size (mg collected) per 20 actuations 2 µ [1, 14]: 0.818 mg
Pressure PSI [1, 14]: 53.7 PSI
cum % 1-8 µ [1, 14]: 28.79%
MMAD** [1, 3]: 3.0 and 2.8
MMAD** [1, 4]: 4.0
MMAD** [1, 5]: 3.5
MMAD** [1, 6]: 3.0
MMAD** [1, 8]: 3.8
MMAD** [1, 9]: 3.8 and 4.0
MMAD** [1, 10]: 4.0
MMAD** [1, 11]: 4.5
MMAD** [1, 12]: 6.0
MMAD** [1, 13]: 5.75
MMAD** [1, 14]: 6.0
Part. Size (mg collected) per 20 actuations 4 µ* [1, 3]: 2.091 mg and 2.522 mg and 2.481 mg
Part. Size (mg collected) per 20 actuations 4 µ* [1, 4]: 1.611 mg
Part. Size (mg collected) per 20 actuations 4 µ* [1, 5]: 2.283 mg
Part. Size (mg collected) per 20 actuations 4 µ* [1, 7]: 1.871 mg and 1.715 mg
Part. Size (mg collected) per 20 actuations 4 µ* [1, 8]: 2.772 mg
Part. Size (mg collected) per 20 actuations 4 µ* [1, 9]: 3.121 mg and 3.103 mg and 2.744 mg
Part. Size (mg collected) per 20 actuations 4 µ* [1, 10]: 2.657 mg
Part. Size (mg collected) per 20 actuations 4 µ* [1, 11]: 3.546 mg
Part. Size (mg collected) per 20 actuations 4 µ* [1, 12]: 2.084 mg
Part. Size (mg collected) per 20 actuations 4 µ* [1, 13]: 2.879 mg
Part. Size (mg collected) per 20 actuations 4 µ* [1, 14]: 2.381 mg
mg at 1-8 µ [1, 3]: 3.512 mg and 4.658 mg and 4.680 mg
mg at 1-8 µ [1, 4]: 3.277 mg
mg at 1-8 µ [1, 5]: 3.987 mg
mg at 1-8 µ [1, 7]: 3.612 mg and 3.062 mg
mg at 1-8 µ [1, 8]: 4.806 mg
mg at 1-8 µ [1, 9]: 5.015 mg and 5.066 mg and 4.488 mg
mg at 1-8 µ [1, 10]: 4.673 mg
mg at 1-8 µ [1, 11]: 5.365 mg
mg at 1-8 µ [1, 12]: 3.272 mg
mg at 1-8 µ [1, 13]: 4.227 mg
mg at 1-8 µ [1, 14]: 3.593 mg
Solubility at 24°C ([2]; Ethanol (W/W) 5%, Propellants 114/12 (50/50 Mixture) 93.2%): 1.8%
Solubility at 24°C ([2]; Ethanol (W/W) 10%, Propellants 114/12 (50/50 Mixture) 86.0%): 4.0%
Solubility at 24°C ([2]; Ethanol (W/W) 20%, Propellants 114/12 (50/50 Mixture) 74.0%): 6.0%
Solubility at 24°C ([2]; Ethanol (W/W) 30%, Propellants 114/12 (50/50 Mixture) 61.0%): 9.0%
Structure (SMILES): CCCCCC(O)c1cccc(OCc2ccc3ccccc3n2)c1 (stereo not drawn) [Compound of Example 1, 2-(3-(l-Hydroxyhexyl)phenoxymethyl)quinoline hydrochloride]
percent inhibition of the mean control response (Male Hartley guinea pigs): 53%
normalized postchallenge increase in PAW (ratio of antigen-induced to LTD4-induced bronchoconstriction), mean response (Male Hartley guinea pigs; mean and standard error): 0.60 ± 0.16
